Test results taken from patent publication US8298781B2, “Compositions and methods for characterizing and regulating olfactory sensation” (Duke University, priority 2007, dated 2012).

System: human subjects
Test: Human olfactory psychophysics: detection thresholds (single staircase method)
Assay type: in vivo
Settings: for detection threshold, RT/S84N subjects vs RT/RT controls: N=3 RT/S84N; for detection threshold, RT/P79L subjects vs RT/RT subjects: N=12 RT/P79L; for detection threshold, OR7D4 RT/WM vs RT/RT subjects: binary dilutions in propylene glycol, N=49 RT/WM, N=47 RT/RT
Protocol: Human olfactory psychophysics. All human subjects gave informed consent to participate in this study and were tested in a well-ventilated room. Normal human subjects (n=412; 218 female, 194 male; median age 34, age range 19-75) were pre-screened to exclude pregnant women and those with medical conditions causing general impairment of the sense of smell. All subjects completed two replicates of the test separated by at least 4 days. Odors were presented in amber vials as previously described (see, e.g., Keller, A., et al., Nat Neurosci 7, 337-338 (2004); herein incorporated by reference in its entirety) using bar-coded symbols to ensure that subjects were blind to the identity of all odors. The intensity and valence of 66 odors at two concentrations (“high” and “low”) and two solvents was rated using a 7-point scale. Thresholds were calculated using the single staircase method with seven reversals (see, e.g., Doty, R. L., et al., Chem Senses 20, 645-656 (1995); Doty, R. L. & Laing, D. G. in Handbook of Olfaction and Gustation (ed. Doty, R. L.) pp. 203-228 (Marcel Dekker, Inc., New York, 2003); each of which are herein incorporated by reference in their entireties). Threshold tests included both steroids as binary dilutions from […] (binary dilution 6) to 1: 134,217,728 (binary dilution 27). Subjects who could not reliably distinguish a 1:64 dilution of androstenone and androstadienone from solvent were operationally defined as anosmic to these odorous steroids, although it could not be excluded that these subjects could detect higher concentrations of these steroids (see, e.g., Bremner, E. A., et al., Chem Senses 28, 423-432 (2003); herein incorporated by reference in its entirety). Odor profiling used the method established by Dravnieks, et al. (see, e.g., Dravnieks, A., et al., Science 218, 799-801 (1982); herein incorporated by reference in its entirety).
For the descriptors task, the following odors and concentrations were used: propylene glcol (pure), pentadecalactone 1/500, vanillin 1/200, and androstenone 1/10,000. The following odors were used for thresholding: adrostenone and androstadienone. These were tested at an initial concentration of binary dilution 27 […] in propylene glycol and moved from there in binary steps. The range of dilutions tested was from binary dilution 27 (1:134,217,728) to binary dilution 6 (1:64). Odor vials used for intensity and valence ratings and the assigning of descriptors to odors were used for 40 sessions and then replaced by a new set. Master stocks of each odor were established at the beginning of the study to avoid intertrial variability in odor concentrations.
Threasholding. Detection thresholds (FIG. 3c and FIG. 5b-c) were determined using the “Single Staircase Threshold Detection Method” (see, e.g., Buck, L., et al., Cell 65, 175-187 (1991); Menashe, I., et al., Nat Genet. 34, 143-144 (2003); each of which are herein incorporated by reference in their entireties). This method produced very accurate data on the threshold concentration of a given dour and was easy to administer and for the subjects to perform. The thresholds for each subject on two occasions was tested at least four days apart. This helped to control for inter-trial variability in olfactory performance. The average difference between the thresholds determined on the two days was three binary dilution steps for andmstenone and five for androstadienone.
A custom computer-controlled thresholding test was administered as a self-test to each subject. Briefly, subjects were instructed to sniff two vials, one containing the solvent, the other a dilution of the odorant. Both vials have barcode labels and the procedure was done at a computer equipped with a scanner. Subjects are asked to scan the vial with the stronger odor. Depending on their answer, the procedure was repeated at an adjusted concentration. […]

Row | SMILES | detection threshold, RT/S84N subjects vs RT/RT controls | detection threshold, RT/P79L subjects vs RT/RT subjects | detection threshold, OR7D4 RT/WM vs RT/RT subjects | incidence of specific anosmia, OR7D4 RT/WM vs RT/RT subjects (p<0.05, chi-square test) | proportion of subjects anosmic, RT/P79L vs RT/RT subjects (p=0.018, chi-square analysis)
1 | C[C@@]12C=CC[C@H]1[C@@H]1CCC3=CC(=O)CC[C@]3(C)[C@H]1CC2 [androstadienone, androsta-4,16-dien-3-one] | higher | lower | higher detection thresholds |  | 
2 | C[C@]12CCC(=O)C[C@@H]1CC[C@@H]1[C@@H]2CC[C@]2(C)C=CC[C@@H]12 [androstenone, 5α-androst-16-en-3-one] | higher | lower | higher detection thresholds | greater incidence | lower
